# Where a SMILES comes first, the peptide text is derived from it. [ ]: non-standard residue; d: D form. The star is where a group is joined. Dolaproine = CO[C@@H]([C@@H]1CCCN1)[C@@H](C)C(=O)O; Dil = CC[C@H](C)[C@H](NC)[C@@H](CC(=O)O)OC; X1 = C[C@@H](N*)[C@@H](O)c1ccccc1; NMeV = CN[C@H](C(=O)O)C(C)C
# Test system: HEK‐293 cells (VEGFR2−, αvβ3−)
# Test: AlamarBlue cell viability, HEK-293
# Assay type: cell-based
# Conditions: 200 nM MMAE in free form, 10 min in PBS, 37 °C, 10% Alamar blue 6 h; HUVEC, HEK-293, HCT-116, A498 compared (Figure S44)
# Excerpt: Figure 6 Cytotoxicity of cathepsin B‐cleavable vcMMAE‐DNA‐peptide complexes LC40 and components. a) Viability of HUVECs after treatment with unlabeled DNA complex 2), vcMMAE‐template DNA 3), single‐stranded monovalent DNA‐peptide conjugates 4 and 5), heterobivalent LC40 lacking cytotoxic payload 6), both i) single‐stranded monovalent DNA‐peptide conjugates followed by ii) addition of vcMMAE‐template 7), with i) unlabeled DNA complex followed by addition of ii) both single‐stranded monovalent DNA‐peptide conjugates and subsequently iii) vcMMAE‐template 8 and 9), vcMMAE‐LC40 at varied concentrations 10–15) or with unlabeled DNA complex prior to addition of vcMMAE‐LC40 16 and 17). […] Flow cytometric analysis of HUVECs mixed with e) eGFP‐expressing HEK‐293 cells or f) anti‐EpCAM antibody‐stained HCT‐116 cells assessed by dead cell staining. […]
# The collected HUVEC cells were washed twice with OptiMEM and added to 2.4 mL OptiMEM in T25 flasks.The siRNA-lipofectamine complex (600 µL) was added to 2.4 mL HUVEC cells, and the mixture was incubated at 37°C, 5% CO 2 for 4 h. […] The transfection efficiency was calculated by flow cytometry and comparing the signal of anti-integrin antibody (A488) from HUVEC cells transfected with siRNA + lipofectamine with that from the cells with mock transfection (Fig. S39). […]
smiles,measurement,value
"CC[C@H](C)[C@@H]([C@@H](CC(=O)N1CCC[C@H]1[C@H](OC)[C@@H](C)C(=O)N[C@H](C)[C@@H](O)c1ccccc1)OC)N(C)C(=O)[C@@H](NC(=O)[C@@H](NC)C(C)C)C(C)C [MMAE, monomethyl auristatin E] (H-[NMeV]V[Dil][Dolaproine]-X1)","cytotoxic effect of MMAE in free form, comparison of cell lines",most vulnerable
